Assay results taken from patent US10308644B2, “Heterocyclic compounds as immunomodulators” (Incyte Corporation, priority 2016, dated 2019).

The compounds below were run against PD-1/PD-L1 (Homo sapiens (Human), UniProt Q9NZQ7) (assay: PD-1/PD-L1 Homogeneous Time-Resolved Fluorescence (HTRF) Binding Assay). Conditions: recombinant human PD-1 (3 nM) and PD-L1 (10 nM), 25° C., PBS pH 7.4.
Method in brief: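 Fc-tagged human PD-1 (25-167, 3 nM) and His-tagged PD-L1 (19-238, 10 nM) preincubated with inhibitor 40 min in PBS pH 7.4, 0.05% Tween-20, 0.1% BSA, 1% DMSO, 25 °C. Binding detected by HTRF (Eu anti-IgG/APC anti-His, 665/620 nm) after 60 min; IC50 from percent control activity.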

Chain of PD-1/PD-L1 (Q9NZQ7 19-238): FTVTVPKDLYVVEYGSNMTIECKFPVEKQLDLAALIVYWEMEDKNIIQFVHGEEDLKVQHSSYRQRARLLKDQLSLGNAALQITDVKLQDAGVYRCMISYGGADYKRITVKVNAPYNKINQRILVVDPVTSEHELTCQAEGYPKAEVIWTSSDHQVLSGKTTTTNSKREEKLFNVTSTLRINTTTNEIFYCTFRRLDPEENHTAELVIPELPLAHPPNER

Row | SMILES | IC50 [µM]
1 | Cc1c(Nc2nccc3cc(CNCCO)cnc23)cccc1-c1cccc(-c2nc3cc(CN4CCCC[C@H]4C(=O)O)cc(Cl)c3o2)c1C [Example 3, (S)-1-((7-chloro-2-(3′-((3-(((2-hydroxyethyl)amino)methyl)-1,7-naphthyridin-8-yl)amino)-2,2′-dimethyl-[1,1′-biphenyl]-3-yl)benzo[d]oxazol-5-yl)methyl)piperidine-2-carboxylic acid] | ≤ 0.01
2 | Cc1c(NC(=O)c2nc3c(n2C)CCN(C)C3)cccc1-c1cccc(-c2nc3cc(CN4CCC(C(=O)O)CC4)cc(C#N)c3o2)c1C [Example 259, 1-((7-cyano-2-(3′-(1,5-dimethyl-4,5,6,7-tetrahydro-1H-imidazo[4,5-c]pyridine-2-carboxamido)-2,2′-dimethylbiphenyl-3-yl)benzo[d]oxazol-5-yl)methyl)piperidine-4-carboxylic acid] | ≤ 0.01
3 | Cc1c(Nc2nccc3cc(CN4CC[C@@H](O)C4)cnc23)cccc1-c1cccc(-c2nc3cc(CN4CC(C(=O)O)C4)cc(C#N)c3o2)c1C [Example 85, (R)-1-((7-cyano-2-(3′-(3-((3-hydroxypyrrolidin-1-yl)methyl)-1,7-naphthyridin-8-ylamino)-2,2′-dimethylbiphenyl-3-yl)benzo[d]oxazol-5-yl)methyl)azetidine-3-carboxylic acid] | ≤ 0.01
4 | Cc1c(-c2nc3cc(CN4CC[C@@H](C(=O)O)C4)cc(C#N)c3o2)cccc1-c1cccc(-c2nc3c(s2)CN(C(=O)CN2CCN(C)CC2)C3)c1C [Example 108, (R)-1-((7-cyano-2-(2,2′-dimethyl-3′-(5-(2-(4-methylpiperazin-1-yl)acetyl)-5,6-dihydro-4H-pyrrolo[3,4-d]thiazol-2-yl)biphenyl-3-yl)benzo[d]oxazol-5-yl)methyl)pyrrolidine-3-carboxylic acid] | ≤ 0.01
5 | Cc1c(Nc2nccc3cc(CN4CC[C@H](O)C4)cnc23)cccc1-c1cccc(-c2nc3cc(CN4CC[C@H](C(=O)O)C4)cc(C#N)c3o2)c1C [Example 25, (S)-1-((7-cyano-2-(3′-(3-(((S)-3-hydroxypyrrolidin-1-yl)methyl)-1,7-naphthyridin-8-ylamino)-2,2′-dimethylbiphenyl-3-yl)benzo[d]oxazol-5-yl)methyl)pyrrolidine-3-carboxylic acid] | ≤ 0.01
6 | Cc1c(Nc2nccc3cc(CN[C@H](C)CO)cnc23)cccc1-c1cccc(-c2nc3cc(CN4CCC(C(=O)O)CC4)cc(C#N)c3o2)c1C [Example 202, (R)-1-((7-cyano-2-(3′-(3-((1-hydroxypropan-2-ylamino)methyl)-1,7-naphthyridin-8-ylamino)-2,2′-dimethylbiphenyl-3-yl)benzo[d]oxazol-5-yl)methyl)piperidine-4-carboxylic acid] | ≤ 0.01
7 | Cc1c(-c2nc3cc(CN4CCCC[C@H]4C(=O)O)cc(C#N)c3o2)cccc1-c1cccc(NC(=O)c2nc3c(n2C)CCN(C)C3)c1Cl [Example 52, (S)-1-((2-(2′-chloro-3′-(1,5-dimethyl-4,5,6,7-tetrahydro-1H-imidazo[4,5-c]pyridine-2-carboxamido)-2-methylbiphenyl-3-yl)-7-cyanobenzo[d]oxazol-5-yl)methyl)piperidine-2-carboxylic acid] | ≤ 0.01
8 | Cc1c(Nc2nccc3cc(CCN4CC[C@@H](O)C4)cnc23)cccc1-c1cccc(-c2nc3cc(CN4CC[C@@H](C(=O)O)C4)cc(C#N)c3o2)c1C [Example 167, (R)-1-((7-cyano-2-(3′-(3-(2-((R)-3-hydroxypyrrolidin-1-yl)ethyl)-1,7-naphthyridin-8-ylamino)-2,2′-dimethylbiphenyl-3-yl)benzo[d]oxazol-5-yl)methyl)pyrrolidine-3-carboxylic acid] | ≤ 0.01
9 | Cc1c(Nc2nccc3cc(CN4CC[C@@H](O)C4)cnc23)cccc1-c1cccc(-c2nc3cc(CNC45CCC(C(=O)O)(CC4)C5)cc(C#N)c3o2)c1C [Example 183, (R)-4-((7-cyano-2-(3′-(3-((3-hydroxypyrrolidin-1-yl)methyl)-1,7-naphthyridin-8-ylamino)-2,2′-dimethylbiphenyl-3-yl)benzo [d]oxazol-5-yl)methylamino)bicyclo[2.2.1]heptane-1-carboxylic acid] | ≤ 0.01
10 | Cc1c(-c2nc3cc(CN4CC[C@@H](O)C4)cc(C#N)c3o2)cccc1-c1cccc(NC(=O)c2nc3c(n2C)CCN(CCC2CCC(C(=O)O)CC2)C3)c1Cl (stereo partly drawn) [Example 265, (R)-4-(2-(2-(2-chloro-3′-(7-cyano-5-((3-hydroxypyrrolidin-1-yl)methyl)benzo[d]oxazol-2-yl)-2′-methylbiphenyl-3-ylcarbamoyl)-1-methyl-6,7-dihydro-1H-imidazo[4,5-c]pyridin-5(4H)-yl)ethyl)cyclohexane carboxylic acid] | ≤ 0.01
11 | Cc1c(Nc2nccc(CN3CC[C@@H](O)C3)c2F)cccc1-c1cccc(-c2nc3cc(CN4CC[C@@H](C(=O)O)C4)cc(C#N)c3o2)c1C [Example 102, (R)-1-((7-cyano-2-(3′-(3-fluoro-4-(((R)-3-hydroxypyrrolidin-1-yl)methyl)pyridin-2-ylamino)-2,2′-dimethylbiphenyl-3-yl)benzo[d]oxazol-5-yl)methyl)pyrrolidine-3-carboxylic acid] | ≤ 0.01
12 | Cc1c(NC(=O)c2nc3c(n2C)CCN(C)C3)cccc1-c1cccc(-c2nc3cc(CN4CC[C@@H](C(=O)O)C4)cc(C#N)c3o2)c1C [Example 80, (R)-1-((7-cyano-2-(3′-(1,5-dimethyl-4,5,6,7-tetrahydro-1H-imidazo[4,5-c]pyridine-2-carboxamido)-2,2′-dimethylbiphenyl-3-yl)benzo[d]oxazol-5-yl)methyl)pyrrolidine-3-carboxylic acid] | ≤ 0.01
13 | Cc1c(Nc2nccc3cc(CN4CC[C@@H](C(=O)O)C4)cnc23)cccc1-c1cccc(-c2nc3cc(CN4CC[C@@H](O)C4)cc(C#N)c3o2)c1C [Example 141, (R)-1-((8-(3′-(7-cyano-5-(((R)-3-hydroxypyrrolidin-1-yl)methyl)benzo[d]oxazol-2-yl)-2,2′-dimethylbiphenyl-3-ylamino)-1,7-naphthyridin-3-yl)methyl)pyrrolidine-3-carboxylic acid] | ≤ 0.01
14 | Cc1c(COc2cc(OCc3cncc(C#N)c3)c(CN3CCCC[C@H]3C(=O)O)cc2Cl)cccc1-c1cccc(-c2nc3cc(CN4CC[C@@H](C(=O)O)C4)cc(Cl)c3o2)c1C [Example 149, (S)-1-(4-((3′-(5-(((R)-3-carboxypyrrolidin-1-yl)methyl)-7-chlorobenzo[d]oxazol-2-yl)-2,2′-dimethyl-[1,1′-biphenyl]-3-yl)methoxy)-5-chloro-2-((5-cyanopyridin-3-yl)methoxy)benzyl)piperidine-2-carboxylic acid] | 0.01 to 0.1
15 | Cc1c(Nc2nccc3cc(CN4CCC(C(=O)O)CC4)cnc23)cccc1-c1cccc(-c2nc3cc(CNC[C@H](C)O)cc(C#N)c3o2)c1C [Example 212, (S)-1-((8-(3′-(7-cyano-5-((2-hydroxypropylamino)methyl)benzo[d]oxazol-2-yl)-2,2′-dimethylbiphenyl-3-ylamino)-1,7-naphthyridin-3-yl)methyl)piperidine-4-carboxylic acid] | ≤ 0.01
16 | Cc1c(Nc2nccc3cc(CN4CC[C@@H](O)C4)cnc23)cccc1-c1cccc(-c2nc3cc(CN4CC[C@H](C(=O)O)C4)cc(Cl)c3o2)c1C [Example 19, (S)-1-((7-chloro-2-(3′-(3-(((R)-3-hydroxypyrrolidin-1-yl)methyl)-1,7-naphthyridin-8-ylamino)-2,2′-dimethylbiphenyl-3-yl)benzo[d]oxazol-5-yl)methyl)pyrrolidine-3-carboxylic acid] | ≤ 0.01
17 | Cc1c(-c2nc3c(o2)CN(C(=O)CN2CCCC[C@H]2C(=O)O)C3)cccc1-c1cccc(-c2nc3cc(CN4CC[C@@H](O)C4)cc(C#N)c3o2)c1C [Example 133, (S)-1-(2-(2-(3′-(7-cyano-5-(((R)-3-hydroxypyrrolidin-1-yl)methyl)benzo[d]oxazol-2-yl)-2,2′-dimethyl-[1,1′-biphenyl]-3-yl)-4,6-dihydro-5H-pyrrolo[3,4-d]oxazol-5-yl)-2-oxoethyl)piperidine-2-carboxylic acid] | ≤ 0.01
18 | Cc1c(Nc2nccc3cc(CN4CC[C@H](O)C4)cnc23)cccc1-c1cccc(-c2nc3cc(CN4CCCC[C@H]4C(=O)O)cc(C#N)c3o2)c1C [Example 27, (S)-1-((7-cyano-2-(3′-(3-(((S)-3-hydroxypyrrolidin-1-yl)methyl)-1,7-naphthyridin-8-ylamino)-2,2′-dimethylbiphenyl-3-yl)benzo[d]oxazol-5-yl)methyl)piperidine-2-carboxylic acid] | ≤ 0.01
19 | Cc1c(Nc2nccc3cc(CN4CC[C@@H](O)C4)cnc23)cccc1-c1cccc(-c2nc3cc(CNCC(C)(C)C(=O)O)cc(C#N)c3o2)c1C [Example 86, (R)-3-((7-cyano-2-(3′-(3-((3-hydroxypyrrolidin-1-yl)methyl)-1,7-naphthyridin-8-ylamino)-2,2′-dimethylbiphenyl-3-yl)benzo[d]oxazol-5-yl)methylamino)-2,2-dimethylpropanoic acid] | ≤ 0.01
20 | Cc1c(-c2nc3cc(CN4CC[C@@H](C(=O)O)C4)cc(C#N)c3o2)cccc1-c1cccc(Nc2nccc3cc(CN4CCOC4=O)cnc23)c1Cl [Example 31, (R)-1-((2-(2′-chloro-2-methyl-3′-(3-((2-oxooxazolidin-3-yl)methyl)-1,7-naphthyridin-8-ylamino)biphenyl-3-yl)-7-cyanobenzo[d]oxazol-5-yl)methyl)pyrrolidine-3-carboxylic acid] | ≤ 0.01
21 | Cc1c(-c2nc3cc(CN4CC[C@@H](O)C4)cc(C#N)c3o2)cccc1-c1cccc(NC(=O)c2nc3c(n2C)CC(C)(C(=O)O)N(C)C3)c1Cl (stereo partly drawn) [Example 165, 2-(2-chloro-3′-(7-cyano-5-(((R)-3-hydroxypyrrolidin-1-yl)methyl)benzo[d]oxazol-2-yl)-2′-methylbiphenyl-3-ylcarbamoyl)-1,5,6-trimethyl-4,5,6,7-tetrahydro-1H-imidazo[4,5-c]pyridine-6-carboxylic acid] | ≤ 0.01
